# According to patent US20090018146A1, “Combination Therapy with Triterpenoid Compounds and Proteasome Inhibitors” (Research Development Corporation, priority 2005, published 2009):
# Legend:
# Hsp90 = test: Western blot of Hsp90 protein in avicin D treated Jurkat cells; format: cell-based, human; conditions: avicin D 1 μM, within one hour up to 4 hours, western blot vs untreated
# Description: (§1) Jurkat T cells (2 μg/ml=1 μM), U-937 (4 μg/ml), MJ (5 μg/ml), and HH cells (2.5 μg/ml) were treated for 0-24 hours with the indicated concentrations of avicin D. PBLs from the patients or normal blood were treated with 5 μg/ml of avicin D for 24 hours.
# (§2) At the end of treatments, cells were harvested, washed with sterile ice-cold PBS and cytoplasmic extracts (CE) were prepared by lysing the cells in CE buffer containing 10 mM Hepes-Cl pH 7.5, 10 mM KCl, 0.1 mM EDTA, 0.1 mM EGTA, 0.3% NP40, and a protease inhibitor cocktail (Sigma). After centrifugation and separating the supernatant (CE proteins), the pellet was resuspended in a buffer containing 20 mM Hepes-Cl, 400 mM NaCl, 1 mM EDTA, 1 mM EGTA, and protease inhibitor cocktail (Sigma). The nuclear protein extraction proceeded for 30 min. on ice followed by centrifugation at 14,000 rpm for 5 min at 4° C. The clear supernatant containing nuclear proteins (NE) was collected, glycerol (10%) was added, and proteins stored at −80° C. until use.
# (§3) SDS-PAGE and immunoblot procedures were essentially performed as described (Sambrook, 1989). […] Protein bands were detected using the ECL chemiluminescence kit from Amersham as per the manufacturer's protocol.
# (§4) Quantitation of proteins (western) and transcripts (RT-PCR) was performed using the NIH 1.61 image software.
# his-ub-Hsp70 = test: In vivo ubiquitination of Hsp70 in his-ub transfected Jurkat cells; format: cell-based, human; conditions: his-ub transfected Jurkat cells, avicin D 1 μM, 2 and 4 hours, p<0.05
# Description: Jurkat T-cells were transfected with a plasmid pDG268 that expresses a fusion protein of histidine-tagged human ubiquitin and enhanced GFP. Transfection was performed using μm ax a Biosystems kit and their protocol. After 24 hours of transfection, cells were harvested, resuspended at a density of 10^6 cells/ml before treatment with lactacystin or avicin D.
# Jurkat T cells transfected with the his-ub plasmid construct were treated with lactacystin (10 μM) or with avicin D (1 μM) for 4 hours. Cells were harvested and CE prepared as described above. […] The affinity purified histidine-tagged proteins were separated on SDS-PAGE and analyzed on western blots for ub-Hsp70 proteins.
# Hsp70α transcript = test: One-step RT-PCR of Hsp70α transcript in Jurkat cells; format: cell-based, human; conditions: as early as 30 minutes
# Description: (§5) Total RNA purified using Trizol method (Invitrogen) was subjected to DNAseI (RNAase free, Sigma Chemical Co.) treatment to remove any residual DNA, followed by heat inactivation and addition of 1 mM EDTA. Absence of genomic DNA was confirmed by performing PCR using Taq DNA polymerase. About 50-100 ng of purified total RNA was used in a one-step RT-PCR reaction kit from Invitrogen in a Techne Genius machine. The samples were separated on 0.8% agarose-TBE gels and viewed by staining with ethidium bromide.
# as §4
# [1] = system: PBL from a normal blood sample; test: Apoptosis in normal PBL; format: cell-based, human
# Description: as §1
# Hsp27 = test: Western blot of Hsp27 protein in avicin D treated Jurkat cells; format: cell-based, human; conditions: avicin D 1 μM, 2-4 hours
# Description: as §1, §2, §3, §4
# HSF1 = test: Western blot of HSF1 in cytoplasmic and nuclear extracts of Jurkat cells; format: cell-based, human
# Description: as §1, §2, §3, §4
# recombinant Hsp70 = test: In vitro ubiquitination assay with recombinant Hsp70, his-ub and CE proteins of treated cells; format: biochemical, bovine; conditions: cytoplasmic extracts of treated vs untreated Jurkat cells
# Description: Ubiquitination assays were performed as described (Firestein and Feuerstein, 1998) with few modifications using recombinant bovine Hsp70 and N-terminal histidine-tagged ubiquitin (his-ub). About 0.5 μg of Hsp70 and 4 μg of his-ub were incubated in a buffer containing 50 mM Tris-Cl pH 7.5, 2.5 mM MgCl2, 0.05% NP 40, 0.5 mM DTT, 5 mM ATP, 4 μM MG132, and ATP regenerating system containing 10 mM creatine phosphate, 0.1 μg/ml of creatine kinase, and about 50 μg of CE proteins. The reaction was carried out for 1 hour at 30° C. and the products were subjected to nickel agarose chromatographic purification to purify histidine-tagged proteins as per manufacturer's protocol (Qiagen). The affinity-purified proteins were prepared for SDS-PAGE and western analysis using anti-Hsp70 antibodies.
# [2] = system: Hsc70, Hsp60, grp75, calnexin; test: Western blot of other chaperone proteins in avicin D treated Jurkat cells; format: cell-based, human; conditions: avicin D 1 μM, up to 4 hours
# Description: as §1, §2, §3, §4
# E3α ubiquitin ligase = test: Western blot of E3α ubiquitin ligase in Jurkat cells; format: cell-based, human; conditions: peak at one hour of treatment
# Description: as §1, §2, §3
# Hsp70 transcript = test: Northern blot of Hsp70 transcript in Jurkat cells; format: cell-based, human
# Description: Total RNA from the control and avicin treated Jurkat T cells was made using Trizol (Invitrogen). Equal amounts of RNA were separated on form amide gels and transferred to nylon membranes (Hybond N+, Amersham) and UV cross-linked using UV Stratalinker (Stratagene). Staining the membranes with 0.03% methylene blue solution in 0.3% sodium acetate, pH 5.2, monitored equal loading. The DNA probes for Hsp70 and Hsp90 were purchased from StressGen as pUC plasmids and used according to the manufacturer's protocol. The DNA fragments were radiolabeled using a Nick Translation kit from Gibco BRL and [^32P] dCTP (Amersham). The membranes were exposed for autoradiography after hybridization using ExpressHyb (Clontech) solution at 58° C. for 1 hour and 5 washes, each of 20 minutes, with 5× SSC containing 0.1% SDS at 50° C.
# Hsp70 = test: Western blot of Hsp70 in primary PBL from Sezary syndrome patients; format: cell-based, human; conditions: 5 μg/ml, 24 hours
# Description: as §1, §2, §3, §4
# [3] = system: Hsp90α, Hsc70, and Hsp60 transcripts; test: One-step RT-PCR of Hsp90α, Hsc70 and Hsp60 transcripts in Jurkat cells; format: cell-based, human
# Description: as §5, §4
# caspase 9 = test: Western blot of caspase 9 cleavage in Jurkat cells; format: cell-based, human; conditions: 2 hours of treatment
# Description: as §1, §2, §3
smiles,measurement,setting,value
C=C[C@](C)(O)CC/C=C(\CO)C(=O)O[C@H]1[C@H](O)[C@@H](O)[C@H](O[C@@](C)(C=C)CC/C=C(\CO)C(=O)O[C@H]2C[C@]3(C(=O)O[C@@H]4O[C@H](CO)[C@@H](O)[C@H](O)[C@H]4O[C@@H]4O[C@@H](C)[C@H](O[C@@H]5O[C@@H](CO)[C@H](O)[C@H]5O)[C@@H](O[C@@H]5O[C@H](CO)[C@@H](O)[C@H](O)[C@H]5O)[C@H]4O)[C@H](O)C[C@]4(C)C(=CC[C@@H]5[C@@]6(C)CC[C@H](O[C@@H]7O[C@H](CO[C@@H]8O[C@H](C)[C@H](O)[C@H](O)[C@H]8O[C@@H]8OC[C@@H](O)[C@H](O)[C@H]8O)[C@@H](O)[C@H](O)[C@H]7NC(C)=O)C(C)(C)[C@@H]6CC[C@]54C)[C@@H]3CC2(C)C)O[C@@H]1C [avicin D],protein levels of Hsp90,Hsp90,significant decrease
same,decrease in the levels of his-ub-Hsp70 protein band,his-ub-Hsp70,40%
same,increase in the Hsp70α transcript (RT-PCR),Hsp70α transcript,~1.6 fold
same,apoptosis,[1],resistant to apoptosis
same,increase of Hsp27,Hsp27,1.4 fold
same,increase in the levels of nuclear HSF1,"HSF1; 4 hours, nuclear extract, densitometric scanning",~1.5 fold
same,cytoplasmic content of HSF1 protein,HSF1; cytoplasmic extract,No apparent change
same,in vitro ubiquitination of Hsp70 (his-ub-Hsp70 ladder),recombinant Hsp70,stronger ladder of his-ub-Hsp70
same,"expression of other chaperone proteins (Hsc70, Hsp60, grp75, calnexin)",[2],did not show any change
same,E3α protein level,E3α ubiquitin ligase,dramatic increase
same,increase in Hsp70 transcript (Northern blot),Hsp70 transcript,~1.4 fold
same,decrease in Hsp70 protein,Hsp70,25-35%
same,"changes in the transcripts encoding Hsp90α, Hsc70, and Hsp60 (RT-PCR)",[3],marginal
same,cleavage of caspase 9,caspase 9,increased cleavage
